Values of other authors, collected in patent US20200323830A1, “TREATMENT OF VIRAL HEMORRHAGIC FEVERS WITH ETORICOXIB” (priority 2019, published 2020).
Read-outs that look alike come from different tables or passages of the source.

Legend:
[1] = dengue infection
[2] = chronic therapy, 4 grams daily
[3] = dose of more than 60 mg/kg/day before admission, dengue subjects
[4] = intake within 24 h, dengue subjects
[5] = chronic use for up to one year
[6] = biological target: T1, COX-1 activity in circulating platelets (Homo sapiens, UniProt P23219); details: therapeutic doses, healthy subjects
T1 construct: COX-1 activity in circulating platelets; endogenous in cells; host or cells: circulating platelets of healthy subjects

[7] = versus placebo, acute pain after surgery
[8] = in vivo
[9] = test system: platelet aggregation or bleeding time
[10] = not given; remark: listed apart in the source
[11] = for incidence of joint bleeding: 90 mg, hemophilic arthropathy
[12] = oral, once daily
[13] = monkeys; similar to diclofenac and ibuprofen
[14] = humans; similar to diclofenac and ibuprofen

T1 sequence (P23219 24-599): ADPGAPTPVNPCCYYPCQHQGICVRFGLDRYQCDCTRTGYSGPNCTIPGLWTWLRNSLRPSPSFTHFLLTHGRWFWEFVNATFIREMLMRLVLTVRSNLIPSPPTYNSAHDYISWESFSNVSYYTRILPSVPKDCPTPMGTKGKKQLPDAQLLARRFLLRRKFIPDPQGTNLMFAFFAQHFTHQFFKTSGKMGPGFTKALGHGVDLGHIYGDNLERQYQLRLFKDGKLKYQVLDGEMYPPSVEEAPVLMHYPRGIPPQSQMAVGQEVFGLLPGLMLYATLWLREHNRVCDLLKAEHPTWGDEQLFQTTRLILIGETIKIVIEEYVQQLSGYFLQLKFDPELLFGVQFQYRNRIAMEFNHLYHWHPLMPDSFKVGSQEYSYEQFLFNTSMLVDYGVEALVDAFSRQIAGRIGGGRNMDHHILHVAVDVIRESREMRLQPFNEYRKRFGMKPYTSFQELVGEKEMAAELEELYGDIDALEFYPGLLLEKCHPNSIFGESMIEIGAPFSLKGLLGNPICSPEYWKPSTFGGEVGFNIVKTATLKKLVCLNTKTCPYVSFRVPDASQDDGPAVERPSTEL

CC(=O)Nc1ccc(O)cc1 [acetaminophen/paracetamol]
transaminase elevation ([1]; median daily dose 1.5 g): caused transaminase elevation | pain scores, analgesic intake, length of stay, duration of fever ([1]; versus placebo): not significantly different from placebo | persons with peak serum aminotransferase values ≥3 times the upper normal limit [2]: 39% | occurrence of hepatitis [3]: significantly associated with the occurrence of hepatitis | transaminase elevation [4]: significantly associated with transaminase elevation | share of all cases of acute liver failure (academic centers of the Acute Liver Failure Study Group, 2005): 42% | share of all cases of acute liver failure (population-based, metropolitan Atlanta, 2007): 41%

Cc1ccc(-c2ncc(Cl)cc2-c2ccc(S(C)(=O)=O)cc2)cn1 [etoricoxib, 5-chloro-2-(6-methylpyridin-3-yl)-3-[4-(trideuteriomethylsulfonyl)phenyl]pyridine]
subjects with elevated ALT or AST (≥3 times the upper limit of normal) [5]: 1% | effect on COX-1 activity in circulating platelets [6]: does not affect COX-1 activity in circulating platelets | fever AEs [7]: fewer fever AEs than subjects on placebo | COX-2 versus COX-1 selectivity (COX-2 versus COX-1): 106 fold | GI tolerability and safety events [8]: significant improvements | effect on platelet aggregation or bleeding time ([9]; doses up to 500 mg): does not affect platelet aggregation or bleeding time | effects on bleeding time or platelet aggregation ([9]; ex vivo whole-blood assays after multiple oral doses): no important effects on bleeding time or platelet aggregation | median onset of action ([10]; acute pain settings): 24 min | risk of bleeding ([10]; acute pain studies): not associated with an increased risk of bleeding | duration of sustained efficacy ([10]; single dose): 24 h | incidence of joint bleeding ([11]; 6-month extension): 78.9% | incidence of joint bleeding ([11]; 6-week portion): 66.7% | serious AEs ([11]; placebo-controlled portion, two events, both on etoricoxib): 3.9% | half-life [12]: approximately 22 hours

CS(=O)(=O)c1ccc(C2=C(c3ccccc3)C(=O)OC2)cc1 [rofecoxib]
antipyretic activity [13]: antipyretic activity | antipyretic activity [14]: antipyretic activity
